We go through 2 compounds from US10208007B2, “Use of strigolactones and strigolactone analogs for treating proliferative conditions” (The State of Israel, Ministry of Agriculture & Rural …, priority 2011, dated 2019).

In general, viability refers to the share of living cells, or the viability signal relative to a control.

The test system of one assay is pP38. The assay can be described thus: Immunoblot with densitometric quantification. It counts as cell-based, human. Here is the method:
Protein concentration was determined using the BCA Protein Assay (Pierce), and 20-50 μg of lysate were separated in a 4-12% SDS-PAGE gel. After transfer, membranes were blocked for 15-30 min at room temperature in 5% BSA (Sigma) in Tris-buffered saline containing 0.1% Tween-20. Primary antibody was incubated for either 1.5 hours at room temperature or overnight at 4° C. Secondary antibody was incubated for 30-45 min at room temperature, and proteins were visualized with West Pico Stable (Pierce). […]
Densitometric quantifications were carried out using ImageJ software (NIMH).
To investigate the signaling mechanisms elicited by strigolactone analogs in cancer cells, MDA-MB-231, DU145 and HCT116 cells were treated with strigolactone analogs for 1, 4 or 8 hours and lysates were analyzed by immuno-blotting. […]
Immunoblot analysis of MDA-MB-231 and HCT116 cells treated with strigolactone analogs was performed. […] At 4 hours and 8 hours, pP38 levels increased 5 fold and 13 fold respectively following ST-362 treatment compared to vehicle controls (FIG. 13B—a bar graph showing densitometric quantification of pP38 levels as shown in FIG. 13A). […]
In general terms: Immunoblotting shows a protein as a band on a membrane.

Assay [1] relates to MCF-7 secondary mammospheres. The assay can be described thus: cells. The settings on record: Homo sapiens, MCF7, 120 h. The format is cell-based. On the procedure:
Adherent cells were gently trypsinized, (0.05% trypsin/EDTA) washed twice in PBS and filtered through a […] cell sieve to obtain a single cell suspensions. Cells were diluted to a concentration of 10,000 cell/ml in serum-free phenol-red free MEBM (MEGM Bulletkit, Lonza) supplemented with 5 μg/ml bovine insulin, 20 ng/ml recombinant epidermal growth factor, 20 ng/ml basic fibroblast growth factor (Gibco), 1×B27 supplement, 0.5 μg/ml hydrocortisone (MEGM Bulletkit, Lonza). For MDA-MB-231 mammosphere cultures serum-free phenol red-free CnT-27 medium with growth additives (CellnTEC Advanced cell systems, Bern, Switzerland) was used as previously described. 0.1 ml was seeded per well of a Ultralow attachment 96 well plates. The following day the indicated doses of GR-24 (ppm) or vehicle alone (0.6% acetone f/c) were added. Media was replenished every 3-4 days. Self-renewal capacity of the mammospheres was determined by re-plating and producing further generations of mammospheres. Secondary mammospheres were cultivated by dissociation (trypsinization with gently vortexing) of 10-14 day old primary mammospheres. Single cell suspensions were obtained as described above.
Mammosphere viability was assessed by XTT assay (ATCC). 5 days after addition of the indicated concentrations of GR-24, cell viability was determined. […] To further investigate GR-24 induced inhibition of mammosphere formation, the expression of breast stem cells markers were examined.

[2] abbreviates: read-out: Mammosphere viability.

With `CC1=CC(O/C=C2/C(=O)c3c(c4cc(-c5scc6c5OCCO6)ccc4n3C)C2C)OC1=O` (centres unmarked) [ST-362, (2E)-2-[(2,5-dihydro-4-methyl-5-oxofuran-2-yloxy)methylene]-1,2-dihydro-7-(2,3-dihydrothieno[3,4-b][1,4]dioxin-7-yl)-1,4-dimethyl-cyclopenta[b]indole-3-(4H)-one], the “pP38 levels increase compared to vehicle controls” value in the assay on pP38 (MDA-MB-231, 4 hours) worked out at 5 fold; in the assay on pP38 (MDA-MB-231, 8 hours), 13 fold.

Take `CC1=C[C@H](O/C=C2/C(=O)O[C@@H]3c4ccccc4C[C@H]23)OC1=O` (relative stereo) [GR-24, (3aR*,8bS*,E)-3-(((R*)-4-methyl-5-oxo-2,5-dihydrofuran-2-yloxy)methylene)-3,3a,4,8b-tetrahydro-2H-indeno[1,2-b]furan-2-one]: in assay [1] (setting [2]), the viability at 2.5 ppm was found to be 68.6% and the viability at 5 ppm was 16.4%. In addition, in assay [1] (read-out: Reduction of viability), the cytotoxicity at 5 ppm is around 80%.
